Assay: mn = molality of the nth substance listed, in mol/kg
Conditions: 101.3 kPa, Liquid; for viscosity: Capillary tube (Ostwald / Ubbelohde) method; for mass density: Vibrating tube method

Cn1c(=O)c2c(ncn2C)n(C)c1=O [caffeine] + O
Conditions | mass density, 288.15 K [kg/m3] | mass density, 298.15 K [kg/m3] | mass density, 308.15 K [kg/m3] | mass density, 318.15 K [kg/m3] | viscosity, 288.15 K [mPa·s] | viscosity, 298.15 K [mPa·s] | viscosity, 308.15 K [mPa·s] | viscosity, 318.15 K [mPa·s]
m1 = 0.00508 | – | – | – | – | 1.14 | 0.895 | 0.723 | 0.599
m1 = 0.0051 | 999.404 | 997.304 | 994.303 | 990.464 | – | – | – | –
m1 = 0.00693 | – | – | – | – | 1.142 | 0.896 | 0.724 | 0.6
m1 = 0.00695 | 999.505 | 997.399 | 994.39 | 990.545 | – | – | – | –
m1 = 0.009 | – | – | – | – | 1.144 | 0.896 | 0.724 | 0.601
m1 = 0.00902 | 999.619 | 997.504 | 994.488 | 990.637 | – | – | – | –
m1 = 0.01986 | – | – | – | – | 1.147 | 0.9 | 0.728 | 0.606
m1 = 0.01993 | 1000.22 | 998.06 | 995.013 | 991.121 | – | – | – | –
m1 = 0.02978 | – | – | – | – | 1.152 | 0.905 | 0.732 | 0.609
m1 = 0.02992 | 1000.77 | 998.576 | 995.497 | 991.571 | – | – | – | –
m1 = 0.03531 | 1001.07 | 998.853 | 995.759 | 991.812 | – | – | – | –
m1 = 0.03533 | – | – | – | – | 1.154 | 0.907 | 0.735 | 0.611
m1 = 0.03983 | – | – | – | – | 1.156 | 0.91 | 0.737 | 0.613
m1 = 0.04008 | 1001.34 | 999.101 | 996.001 | 992.025 | – | – | – | –
m1 = 0.04953 | – | – | – | – | 1.162 | 0.914 | 0.741 | 0.617
m1 = 0.04992 | 1001.89 | 999.619 | 996.484 | 992.483 | – | – | – | –

Cn1cnc2c1c(=O)[nH]c(=O)n2C [1H-purine-2,6-dione, 3,7-dihydro-3,7-dimethyl-] + O
Conditions | mass density, 288.15 K [kg/m3] | mass density, 298.15 K [kg/m3] | mass density, 308.15 K [kg/m3] | mass density, 318.15 K [kg/m3] | viscosity, 288.15 K [mPa·s] | viscosity, 298.15 K [mPa·s] | viscosity, 308.15 K [mPa·s] | viscosity, 318.15 K [mPa·s]
m1 = 0.00051 | 999.157 | 997.073 | 994.088 | 990.268 | 1.138 | 0.891 | 0.72 | 0.597
m1 = 0.0007 | 999.167 | 997.083 | 994.097 | 990.277 | 1.139 | 0.891 | 0.72 | 0.597
m1 = 0.0009 | 999.177 | 997.093 | 994.107 | 990.287 | 1.139 | 0.891 | 0.72 | 0.597
m1 = 0.00098 | 999.182 | 997.097 | 994.111 | 990.291 | 1.139 | 0.891 | 0.72 | 0.597
m1 = 0.00123 | 999.195 | 997.11 | 994.123 | 990.303 | 1.139 | 0.891 | 0.72 | 0.597
m1 = 0.00147 | – | – | – | – | 1.139 | 0.891 | 0.72 | 0.597
m1 = 0.00148 | 999.209 | 997.123 | 994.135 | 990.314 | – | – | – | –
m1 = 0.00182 | – | – | – | – | 1.139 | 0.891 | 0.72 | 0.597
m1 = 0.00183 | 999.228 | 997.141 | 994.152 | 990.331 | – | – | – | –
m1 = 0.00212 | – | – | – | – | 1.139 | 0.891 | 0.72 | 0.597
m1 = 0.00213 | 999.244 | 997.156 | 994.167 | 990.346 | – | – | – | –

Cn1c(=O)c2[nH]cnc2n(C)c1=O [3,7-dihydro-1,3-dimethyl-1H-purine-2,6-dione] + O
Conditions | mass density, 288.15 K [kg/m3] | mass density, 298.15 K [kg/m3] | mass density, 308.15 K [kg/m3] | mass density, 318.15 K [kg/m3] | viscosity, 288.15 K [mPa·s] | viscosity, 298.15 K [mPa·s] | viscosity, 308.15 K [mPa·s] | viscosity, 318.15 K [mPa·s]
m1 = 0.00208 | 999.241 | 997.153 | 994.165 | 990.343 | – | – | – | –
m1 = 0.00213 | – | – | – | – | 1.139 | 0.891 | 0.719 | 0.597
m1 = 0.00284 | – | – | – | – | 1.139 | 0.892 | 0.72 | 0.597
m1 = 0.00285 | 999.283 | 997.192 | 994.204 | 990.379 | – | – | – | –
m1 = 0.00378 | 999.333 | 997.239 | 994.25 | 990.423 | – | – | – | –
m1 = 0.00394 | – | – | – | – | 1.14 | 0.892 | 0.72 | 0.598
m1 = 0.00479 | 999.388 | 997.291 | 994.3 | 990.472 | – | – | – | –
m1 = 0.00519 | – | – | – | – | 1.14 | 0.892 | 0.721 | 0.598
m1 = 0.00578 | 999.443 | 997.341 | 994.35 | 990.519 | – | – | – | –
m1 = 0.00617 | – | – | – | – | 1.141 | 0.893 | 0.722 | 0.599
m1 = 0.00689 | – | – | – | – | 1.141 | 0.893 | 0.722 | 0.599
m1 = 0.00699 | 999.509 | 997.404 | 994.41 | 990.578 | – | – | – | –
m1 = 0.00776 | 999.551 | 997.443 | 994.448 | 990.614 | – | – | – | –
m1 = 0.00819 | – | – | – | – | 1.142 | 0.894 | 0.723 | 0.599
m1 = 0.00921 | – | – | – | – | 1.142 | 0.895 | 0.723 | 0.6
m1 = 0.00934 | 999.638 | 997.526 | 994.528 | 990.691 | – | – | – | –
m1 = 0.00986 | 999.667 | 997.554 | 994.554 | 990.716 | – | – | – | –
